Experimental data as given in PubChem BioAssay AID328 (DTP/NCI, 2004).
“And” between values parts separate entries of the source, which are not always exact repeats. Equal entries are not always repeated. Toxic doses and inconclusive results are not listed. Positions of bridges follow the written chain, without caps; N, C: chain ends. Non-standard residues stand in square brackets, D forms with d. Residues, ends and D or L forms follow the SMILES beside them. Chains are numbered I, II in the order given. *: point of attachment. Quinoxaline2carbonyl = O=C(c1cnc2ccccc2n1)*; NMeV = CN[CH](C(=O)O)C(C)C; NMeC = CN[CH](CS)C(=O)O

System: BDF1 mice, P388 leukemia ip, median survival T/C
Assay: NCI In Vivo Anticancer Drug Screen. Data for tumor model P388 Leukemia (intraperitoneal) in B6D2F1 (BDF1) mice
Conditions: endpoint: median survival time, higher = longer survival
Summary of the method: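 Each value expresses how treatment altered survival: treated-mouse outcome over vehicle-mouse outcome, both groups bearing the transplanted tumour.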

[1] = dose: 3.0 mg/kg/injection, schedule: Q04DX003 (ip), vehicle: Klucel (hydroxypropylcellulose) (HPC)
[2] = dose: 4.0 mg/kg/injection, schedule: Q01DX009 (ip), vehicle: Klucel (hydroxypropylcellulose) (HPC)
[3] = dose: 100.0 mg/kg/injection, schedule: Q01DX009 (ip), vehicle: saline with Tween-80
[4] = dose: 100.0 mg/kg/injection, schedule: Q04DX003 (ip), vehicle: Klucel (hydroxypropylcellulose) (HPC)
[5] = dose: 200.0 mg/kg/injection, schedule: Q04DX003 (ip), vehicle: Klucel (hydroxypropylcellulose) (HPC)
[6] = dose: 400.0 mg/kg/injection, schedule: Q04DX003 (ip), vehicle: Klucel (hydroxypropylcellulose) (HPC)
[7] = dose: 100.0 mg/kg/injection, schedule: Q01DX009 (ip), vehicle: Klucel (hydroxypropylcellulose) (HPC)

SMILES: CN=C(N)c1ccc(NC(=O)c2ccc(C(=O)Nc3ccc(C(N)=NC)cc3)c(N)c2)cc1
- T/C (dose: 2.0 mg/kg/injection, schedule: Q04DX003 (ip), vehicle: Klucel (hydroxypropylcellulose) (HPC)): 107 % of control
- T/C (dose: 2.6 mg/kg/injection, schedule: Q01DX009 (ip), vehicle: Klucel (hydroxypropylcellulose) (HPC)): 190 % of control
- T/C [1]: 115 % of control
- T/C [2]: 263 % of control
- T/C (dose: 6.0 mg/kg/injection, schedule: Q01DX009 (ip), vehicle: Klucel (hydroxypropylcellulose) (HPC)): 272 % of control
- T/C (dose: 6.25 mg/kg/injection, schedule: Q01DX009 (ip), vehicle: Klucel (hydroxypropylcellulose) (HPC)): 150 % of control
- T/C (dose: 8.0 mg/kg/injection, schedule: Q04DX003 (ip), vehicle: Klucel (hydroxypropylcellulose) (HPC)): 150 % of control and 175 % of control
- T/C (dose: 12.0 mg/kg/injection, schedule: Q04DX003 (ip), vehicle: Klucel (hydroxypropylcellulose) (HPC)): 170 % of control and 190 % of control
- T/C (dose: 12.5 mg/kg/injection, schedule: Q04DX003 (ip), vehicle: Klucel (hydroxypropylcellulose) (HPC)): 169 % of control
- T/C (dose: 18.0 mg/kg/injection, schedule: Q04DX003 (ip), vehicle: Klucel (hydroxypropylcellulose) (HPC)): 150 % of control and 209 % of control

SMILES: C=C(C)C12OC3(c4ccccc4)OC1C1C4OC4(CO)C(O)C4(O)C(=O)C(C)=CC4C1(O3)C(C)C2OC(=O)/C=C/C=C/C=C/CCC (centres undefined)
- T/C (dose: 6.3 micrograms/kg/injection, schedule: Q## X009 (ip), vehicle: saline with Tween-80): 109 % of control
- T/C (dose: 12.5 micrograms/kg/injection, schedule: Q## X009 (ip), vehicle: saline with Tween-80): 106 % of control
- T/C (dose: 25.0 micrograms/kg/injection, schedule: Q## X009 (ip), vehicle: saline with Tween-80): 109 % of control
- T/C (dose: 50.0 micrograms/kg/injection, schedule: Q## X009 (ip), vehicle: saline with Tween-80): 106 % of control
- T/C (dose: 100.0 micrograms/kg/injection, schedule: Q## X009 (ip), vehicle: saline with Tween-80): 168 % of control

SMILES: COc1ccc(CSc2ncnc3nc[nH]c23)cc1
- T/C [3]: 95 % of control
- T/C (dose: 100.0 mg/kg/injection, schedule: Q04DX003 (ip), vehicle: saline with Tween-80): 100 % of control
- T/C (dose: 200.0 mg/kg/injection, schedule: Q04DX003 (ip), vehicle: saline with Tween-80): 100 % of control
- T/C (dose: 400.0 mg/kg/injection, schedule: Q04DX003 (ip), vehicle: saline with Tween-80): 87 % of control

SMILES: CN(C)/C=C/C=C1C(=O)N(C)C(=O)N(C)C1=O
- T/C (dose: 50.0 mg/kg/injection, schedule: Q01DX009 (ip), vehicle: other): 94 % of control
- T/C (dose: 100.0 mg/kg/injection, schedule: Q01DX009 (ip), vehicle: other): 97 % of control
- T/C (dose: 200.0 mg/kg/injection, schedule: Q01DX009 (ip), vehicle: other): 102 % of control

SMILES: COC(=O)c1ccc(-c2ccccc2)cc1
- T/C (dose: 25.0 mg/kg/injection, schedule: Q04DX003 (ip), vehicle: Klucel (hydroxypropylcellulose) (HPC)): 98 % of control
- T/C (dose: 50.0 mg/kg/injection, schedule: Q04DX003 (ip), vehicle: Klucel (hydroxypropylcellulose) (HPC)): 95 % of control
- T/C [4]: 94 % of control
- T/C [5]: 101 % of control
- T/C [6]: 100 % of control

SMILES: NC(N)=NC(N)=Nc1ccc2ccc3cccc4ccc1c2c34
- T/C (dose: 25.0 mg/kg/injection, schedule: Q04DX003 (ip), vehicle: saline + alcohol): 98 % of control
- T/C (dose: 50.0 mg/kg/injection, schedule: Q04DX003 (ip), vehicle: saline + alcohol): 106 % of control

SMILES: CC(=O)Nc1ccc(Cl)cc1C(=O)c1ccc[nH]1
- T/C (dose: 25.0 mg/kg/injection, schedule: Q01DX009 (ip), vehicle: saline): 100 % of control
- T/C (dose: 50.0 mg/kg/injection, schedule: Q01DX009 (ip), vehicle: saline): 95 % of control
- T/C (dose: 50.0 mg/kg/injection, schedule: Q04DX003 (ip), vehicle: saline): 102 % of control
- T/C (dose: 100.0 mg/kg/injection, schedule: Q04DX003 (ip), vehicle: saline): 98 % of control
- T/C (dose: 200.0 mg/kg/injection, schedule: Q01DX009 (ip), vehicle: saline): 110 % of control
- T/C (dose: 200.0 mg/kg/injection, schedule: Q04DX003 (ip), vehicle: saline): 100 % of control
- T/C (dose: 400.0 mg/kg/injection, schedule: Q01DX009 (ip), vehicle: saline): 87 % of control
- T/C (dose: 400.0 mg/kg/injection, schedule: Q04DX003 (ip), vehicle: saline): 100 % of control

SMILES: CC1NC(=O)C(NC(=O)c2cnc3ccccc3n2)COC(=O)C(C(C)C)N(C)C(=O)C2CSSCC(C(=O)N(C)C(C(C)C)C(=O)OCC(NC(=O)c3cnc4ccccc4n3)C(=O)NC(C)C(=O)N2C)N(C)C1=O (centres undefined) (I: Quinoxaline2carbonyl-SA[NMeC][NMeV] / II: Quinoxaline2carbonyl-SA[NMeC][NMeV]; ester I:1-II:C, I:C-II:1; disulfide I:3-II:3; configuration not given here)
- T/C (dose: 11.0 micrograms/kg/injection, schedule: Q01DX009 (ip), vehicle: saline): 124 % of control
- T/C (dose: 22.5 micrograms/kg/injection, schedule: Q01DX009 (ip), vehicle: saline): 115 % of control
- T/C (dose: 45.0 micrograms/kg/injection, schedule: Q01DX009 (ip), vehicle: saline): 113 % of control
- T/C (dose: 90.0 micrograms/kg/injection, schedule: Q01DX009 (ip), vehicle: saline): 200 % of control

SMILES: O=c1[nH]nc(NCCCO)c2ccccc12
- T/C (dose: 50.0 mg/kg/injection, schedule: Q01DX009 (ip), vehicle: saline with Tween-80): 112 % of control
- T/C [3]: 87 % of control
- T/C (dose: 200.0 mg/kg/injection, schedule: Q01DX009 (ip), vehicle: saline with Tween-80): 96 % of control

SMILES: O=C1c2ccccc2C(=O)N1N(c1ccccc1)c1ccccc1
- T/C [7]: 104 % of control
- T/C [4]: 110 % of control
- T/C [5]: 120 % of control
- T/C (dose: 400.0 mg/kg/injection, schedule: Q01DX009 (ip), vehicle: Klucel (hydroxypropylcellulose) (HPC)): 100 % of control
- T/C [6]: 105 % of control

SMILES: C/C=C1/C[C@@H](C)[C@@](C)(O)C(=O)OCC2=CC[N+]3([O-])CC[C@@H](OC1=O)[C@@H]23 (some centres undefined)
- T/C (dose: 10.0 mg/kg/injection, schedule: Q01DX010 (ip), vehicle: saline): 109 % of control
- T/C (dose: 20.0 mg/kg/injection, schedule: Q01DX010 (ip), vehicle: saline): 104 % of control
- T/C (dose: 40.0 mg/kg/injection, schedule: Q01DX010 (ip), vehicle: saline): 113 % of control
- T/C (dose: 80.0 mg/kg/injection, schedule: Q01DX010 (ip), vehicle: saline): 109 % of control

SMILES: CC1C(=O)OC2CCN3CC4OC4(COC(=O)C(C)(O)C1(C)O)C23 (centres undefined)
- T/C (dose: 50.0 mg/kg/injection, schedule: Q01DX009 (ip), vehicle: Klucel (hydroxypropylcellulose) (HPC)): 95 % of control
- T/C [7]: 95 % of control
- T/C (dose: 100.0 mg/kg/injection, schedule: Q04DX003 (ip), vehicle: saline sonified): 108 % of control
- T/C (dose: 200.0 mg/kg/injection, schedule: Q01DX009 (ip), vehicle: Klucel (hydroxypropylcellulose) (HPC)): 100 % of control
- T/C (dose: 400.0 mg/kg/injection, schedule: Q04DX003 (ip), vehicle: saline sonified): 95 % of control

SMILES: CC(C)(C)N(O)N=O.CC(C)(C)N(O)N=O.[Cu]
- T/C (dose: 1.56 mg/kg/injection, schedule: Q01DX001 (ip), vehicle: saline): 107 % of control
- T/C (dose: 3.13 mg/kg/injection, schedule: Q01DX001 (ip), vehicle: saline): 109 % of control
- T/C (dose: 6.25 mg/kg/injection, schedule: Q01DX001 (ip), vehicle: saline): 106 % of control

SMILES: O=C(NC(COC(=O)C(Cc1ccccc1)NC(=O)c1ccccc1)Cc1ccccc1)c1ccccc1 (centres undefined)
- T/C [2]: 102 % of control
- T/C (dose: 8.0 mg/kg/injection, schedule: Q01DX009 (ip), vehicle: Klucel (hydroxypropylcellulose) (HPC)): 104 % of control
- T/C (dose: 16.0 mg/kg/injection, schedule: Q01DX009 (ip), vehicle: Klucel (hydroxypropylcellulose) (HPC)): 93 % of control
- T/C (dose: 32.0 mg/kg/injection, schedule: Q01DX009 (ip), vehicle: Klucel (hydroxypropylcellulose) (HPC)): 98 % of control

SMILES: C[n+]1ccc(/C=C/c2ccc(Cl)c(Cl)c2)cc1
- T/C (dose: 1.5 mg/kg/injection, schedule: Q01DX009 (ip), vehicle: Klucel (hydroxypropylcellulose) (HPC)): 95 % of control
- T/C (dose: 3.0 mg/kg/injection, schedule: Q01DX009 (ip), vehicle: Klucel (hydroxypropylcellulose) (HPC)): 109 % of control
- T/C [1]: 100 % of control
- T/C (dose: 6.0 mg/kg/injection, schedule: Q04DX003 (ip), vehicle: Klucel (hydroxypropylcellulose) (HPC)): 100 % of control
